{
  "source": "PubChem BioAssay AID504931",
  "about": "(NMMLSC, 2011)",
  "note": "Calls of active or inactive are those of the source.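 How the source made its calls: active means compounds with a reliable fitted curve whose half-effect concentration is below 50 µM; inactive means the rest.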",
  "data": [
    {"test_system": "S. cerevisiae aged cells, superoxide DHE fluorescence, 7 d", "assay": "inhibitors of age-related superoxide in yeast, dose response, powder samples, confirmation (AID 504931)", "conditions": "not given", "units": {"EC50": "µM"}, "values": [
      {"smiles": "Nc1cc2nc3ccccc3nc2cc1N", "EC50": 4.5},
      {"smiles": "O=C(c1cccc2nc3ccccc3nc12)N1CCOCC1", "EC50": 2.33},
      {"smiles": "CC(C)(C)n1nc(-c2ccc(F)cc2)c2c(N)ncnc21", "EC50": 17.2},
      {"smiles": "FC(F)(F)c1nc2cc3nc4ccccc4[nH]c3cc2n1", "EC50": 0.51},
      {"smiles": "CC(C)OC(=O)c1ccc2nc3ccccc3nc2c1", "EC50": 10.9},
      {"smiles": "CCN(CC)c1ccc2nc3ccc(N)cc3[n+](-c3ccccc3)c2c1", "EC50": 26.4},
      {"smiles": "CCCCCNC(=O)C(=O)C1C(=O)Nc2ccccc21", "note": "(stereo not drawn)", "EC50": 0.33},
      {"smiles": "O=C1c2c(O)ccc(O)c2C(=O)c2c(NCCNCCO)ccc(NCCNCCO)c21", "EC50": 3.41},
      {"smiles": "CCN(CC)C(=O)c1ccc2nc3ccccc3nc2c1", "EC50": 0.8},
      {"smiles": "COc1cccc2nc3cc(C)c(C)cc3nc12", "EC50": 0.9},
      {"smiles": "Cc1ccccc1NC(=O)c1cccc2nc3ccccc3nc12", "EC50": 5.45},
      {"smiles": "CC(C)(C)n1nc(-c2ccc(Cl)cc2)c2c(N)ncnc21", "EC50": 7.98},
      {"smiles": "c1ccc2[nH]c3cc4ncnc4cc3nc2c1", "EC50": 1.11},
      {"smiles": "N#CCc1nn(-c2ccccc2)c2ncnc(N)c12", "EC50": 0.8},
      {"smiles": "COc1ccc2nc3ccccc3nc2c1N", "EC50": 2.32},
      {"smiles": "CC(=O)Nc1ccc2nc3ccccc3nc2c1", "EC50": 0.33},
      {"smiles": "CNc1ccc2nc3ccccc3[n+](C)c2c1", "EC50": 6.01},
      {"smiles": "OCC[n+]1c2ccccc2nc2ccc(N3CCOCC3)cc21", "EC50": 10.7},
      {"smiles": "COc1ccc2nc3ccccc3nc2c1NC(=O)c1ccccc1Cl", "EC50": 1.11},
      {"smiles": "Cc1ccc(-c2nn(C(C)(C)C)c3ncnc(N)c23)cc1", "EC50": 2.25},
      {"smiles": "CCN(CC)C(=O)c1cccc2nc3ccccc3nc12", "EC50": 2.8},
      {"smiles": "COc1ccc2c(c1)c1nnc(SC)nc1n2C", "EC50": 1.57}
    ]},
    {"test_system": "not listed separately", "assay": "inhibitors of age-related superoxide in yeast, dose response, powder samples, confirmation (AID 504931)", "conditions": "S. cerevisiae aged cells, superoxide DHE fluorescence, 7 d; at 100 µM (top of the series)", "values": [
      {"smiles": "COc1ccc2nc3ccccc3[n+]([O-])c2c1", "percent response, lower = inhibition": "122% (inactive)"},
      {"smiles": "O=C(OCc1c(F)cccc1Cl)c1cnc2ccccc2n1", "percent response, lower = inhibition": "86.9% (inactive)"},
      {"smiles": "CC(C)OC(=O)CSc1nnc(-c2ccc(Cl)cc2Cl)o1", "percent response, lower = inhibition": "97.2% (inactive)"},
      {"smiles": "O=C(c1ccc2nccnc2c1)N1CCN(c2ccccc2)CC1", "percent response, lower = inhibition": "89.9% (inactive)"},
      {"smiles": "O=C(O)c1ccc2nccnc2c1", "percent response, lower = inhibition": "85.8% (inactive)"},
      {"smiles": "COc1ccc2cc(C3CC(c4ccco4)=NN3S(=O)(=O)c3ccccc3)c(Cl)nc2c1", "note": "(stereo not drawn)", "percent response, lower = inhibition": "97.3% (inactive)"},
      {"smiles": "O=c1[nH]c(O)c(C=Nc2ccc(F)c(Cl)c2)c(=O)[nH]1", "percent response, lower = inhibition": "106% (inactive)"},
      {"smiles": "Cc1cc(C)cc(NC(=O)CN2CCN(c3ccccn3)CC2)c1", "percent response, lower = inhibition": "99.1% (inactive)"},
      {"smiles": "COc1ccc2nc3ccccc3nc2c1", "percent response, lower = inhibition": "108% (inactive)"},
      {"smiles": "O=C(Nc1ccc2nccnc2c1)c1cccc2nccnc12", "percent response, lower = inhibition": "80.9% (inactive)"},
      {"smiles": "CN(C)C(=O)c1ccc2nccnc2c1", "percent response, lower = inhibition": "181% (inactive)"},
      {"smiles": "Cn1c(O)c(C(=Nc2ccc(F)cc2)c2ccccc2Cl)c(=O)n(C)c1=O", "percent response, lower = inhibition": "98.6% (inactive)"},
      {"smiles": "O=C(Nc1ccccc1)c1ccc2nccnc2c1", "percent response, lower = inhibition": "96.8% (inactive)"},
      {"smiles": "N#CC(c1nc2ccccc2nc1N1CCCC1)S(=O)(=O)c1ccccc1", "note": "(stereo not drawn)", "percent response, lower = inhibition": "89.3% (inactive)"},
      {"smiles": "O=C(/C=C/c1cccs1)NC(=S)NNC(=O)Cc1cccs1", "percent response, lower = inhibition": "66.6% (inactive)"},
      {"smiles": "Cn1c(=O)[nH]c2nncnc2c1=O", "percent response, lower = inhibition": "111% (inactive)"},
      {"smiles": "Cc1cc2nc3ccc(N(C)C)cc3nc2cc1N", "percent response, lower = inhibition": "89.3% (inactive)"},
      {"smiles": "CN1CCN(C(=O)c2ccc3nccnc3c2)CC1", "percent response, lower = inhibition": "105% (inactive)"},
      {"smiles": "O=C(Nc1ccc2nccnc2c1)N1CCOCC1", "percent response, lower = inhibition": "96.4% (inactive)"},
      {"smiles": "O=C(CN1CCN(c2ccccn2)CC1)Nc1ccccc1F", "percent response, lower = inhibition": "98.8% (inactive)"},
      {"smiles": "CCc1nc(NC(C)(C)C)c2cnn(-c3ccccc3)c2n1", "percent response, lower = inhibition": "117% (inactive)"},
      {"smiles": "O=C(Nc1cccc(Cl)c1)Nc1ccc2nccnc2c1", "percent response, lower = inhibition": "87.5% (inactive)"},
      {"smiles": "CCn1c2ccccc2c2n[nH]c(=S)nc21", "percent response, lower = inhibition": "99.9% (inactive)"},
      {"smiles": "[O-][n+]1c2ccccc2[n+]([O-])c2cc(O)ccc21", "percent response, lower = inhibition": "126% (inactive)"},
      {"smiles": "Nc1ccc2nccnc2c1", "percent response, lower = inhibition": "96.2% (inactive)"},
      {"smiles": "Cc1cc(C)c2[nH]c3nc(SCC(=O)O)nnc3c2c1", "percent response, lower = inhibition": "92.4% (inactive)"},
      {"smiles": "O=C(Nc1cccc2nccnc12)c1ccccc1", "percent response, lower = inhibition": "80.3% (inactive)"},
      {"smiles": "O=C(Nc1ccc2nccnc2c1)NC1CCCCC1", "percent response, lower = inhibition": "96% (inactive)"},
      {"smiles": "C[n+]1c2ccccc2nc2ccc(NCCO)cc21", "percent response, lower = inhibition": "62.9% (inactive)"},
      {"smiles": "CSc1nnc(-c2ccc([N+](=O)[O-])cc2)o1", "percent response, lower = inhibition": "74% (inactive)"},
      {"smiles": "CC(C)CSc1nnc2c3ccccc3n(C)c2n1", "percent response, lower = inhibition": "110% (inactive)"},
      {"smiles": "O=C(O)c1cnc2ccccc2n1", "percent response, lower = inhibition": "75.7% (inactive)"},
      {"smiles": "O=C(c1cccc2nccnc12)N1CCN(c2ccccc2F)CC1", "percent response, lower = inhibition": "101% (inactive)"},
      {"smiles": "O=C(NCc1ccccc1)c1ccc2nccnc2c1", "percent response, lower = inhibition": "178% (inactive)"},
      {"smiles": "c1ccc2nc3ccccc3nc2c1", "percent response, lower = inhibition": "119% (inactive)"},
      {"smiles": "C#CCSc1ccc(-c2ccc([N+](=O)[O-])cc2)o1", "percent response, lower = inhibition": "58% (inactive)"},
      {"smiles": "Oc1cccc2nc3ccccc3nc12", "percent response, lower = inhibition": "194% (inactive)"},
      {"smiles": "CN(C)CCNc1ncnc2c1cnn2-c1ccc(Cl)cc1", "percent response, lower = inhibition": "92% (inactive)"},
      {"smiles": "C=CCOn1c(=O)c(-c2cccs2)[n+]([O-])c2ccccc21", "percent response, lower = inhibition": "112% (inactive)"},
      {"smiles": "C[C@@]12C(=O)OC(=O)[C@]1(C)C1CCC2O1", "percent response, lower = inhibition": "351% (inactive)"},
      {"smiles": "O=C(Nc1ccc2nccnc2c1)N1CCN(c2ccccc2)CC1", "percent response, lower = inhibition": "91.3% (inactive)"},
      {"smiles": "CC(C)(C)Nc1ncnc2c1cnn2-c1ccccc1", "percent response, lower = inhibition": "94.4% (inactive)"},
      {"smiles": "CCN(CC)C(=O)CSc1nnc(-c2cccc(OC)c2)o1", "percent response, lower = inhibition": "104% (inactive)"},
      {"smiles": "CC(C)(C)NC(=O)Nc1ccc2nccnc2c1", "percent response, lower = inhibition": "101% (inactive)"},
      {"smiles": "C=CCSc1ccc(-c2ccc([N+](=O)[O-])cc2)o1", "percent response, lower = inhibition": "54.8% (inactive)"},
      {"smiles": "CCC(=Nc1ccccc1O)C1=C(O)CC(c2ccccc2)CC1=O", "note": "(stereo not drawn)", "percent response, lower = inhibition": "62.2% (inactive)"},
      {"smiles": "O=C(c1ccc2nccnc2c1)N1CCCCC1", "percent response, lower = inhibition": "105% (inactive)"},
      {"smiles": "O=C(Nc1ccc2nc3ccccc3nc2c1)c1ccc(Br)cc1", "percent response, lower = inhibition": "88% (inactive)"},
      {"smiles": "O=C(c1cccc2nccnc12)N1CCOc2ccccc21", "percent response, lower = inhibition": "96.8% (inactive)"},
      {"smiles": "O=C(O)c1cccc2nccnc12", "percent response, lower = inhibition": "93.9% (inactive)"},
      {"smiles": "O=C(/C=C/c1ccccc1)NC(=S)NNC(=O)Cc1cccs1", "percent response, lower = inhibition": "74.9% (inactive)"}
    ]}
  ]
}
